{"source": "patent US10240133B2", "about": "“ERK-derived peptides and uses thereof” (Yeda Research and Development Co. Ltd., priority 2013, dated 2019)", "key": {"AKT": {"system": "AKT", "experiment": "Western blotting of AKT phosphorylation", "format": "cell-based", "procedure": "(§1) (A) EPE peptide prevents ERK1/2-importin7 interaction. HeLa cells were serum starved (0.1%, 16 hours), pretreated with EPE peptide, scrambled peptide (10 μM, 2 hours) or DMSO, and then stimulated with TPA (250 nM, 15 min). ERK1 were precipitated with αgERK1 Ab; importin7 co-immunoprecipitated with ERK1 was detected by WB with αimportin7 Ab. […] T47D, HeLa, MDA-MB-231 and A2352 cells were serum starved (0.1%, 16 hours), pretreated with EPE peptide, scrambled peptide (10 μM, 2 hours) or DMSO control, and then stimulated with TPA (250 nM, indicated times). Cell extracts were subjected to Western blot analysis with the indicated Abs. (C) EPE peptide inhibits phosphorylation of c-Myc and Elk1 in B-Raf melanomas. A2158 and A2352 cells were treated with scrambled and EPE peptide for two hours and then stimulated with the indicated concentration of TPA for 30 min. […] (D) Quantification of some of the results in B and C. […]\n(§2) (i) Preparation of cellular extracts for Western Blotting: Cells were rinsed twice with ice-cold PBS and scraped into Radio-immunoprecipitation assay buffer (RIPA; 137 mM NaCl, 20 mM Tris (pH 7.4), 10% glycerol, 1% Triton X-100, 0.5% deoxycholate, 0.1% SDS, 2 mM EDTA, 1 mM PMSF, and 20 μM leupeptin). The extracts were centrifuged (20,000×g, 15 min, 4° C.), and the supernatants were further analyzed by Western blotting. […]"}, "Elk1": {"system": "Elk1", "experiment": "Western blotting of Elk1 phosphorylation", "format": "cell-based", "details": "varied among the cell lines; EPE vs scrambled after TPA", "procedure": "as §1, §2"}, "[1]": {"system": "all other transformed cell lines examined (A2352, Hela, MDA-MB-231, DU-145)", "experiment": "Cell viability, EPE peptide compared with PLX4032", "format": "cell-based", "details": "EPE 10 μM, PLX4032 1 μM, 1% FCS", "procedure": "(§3) FIGS. 3A-3B illustrate that EPE peptide prevents proliferation of cancer but not normal cells. (A) Effect of the EPE peptide on the proliferation of various cell lines. Sixteen cancer and four “normal” immortalized cell lines were treated with either EPE or scrambled peptides as described above. Viable cells were assayed by Methylene Blue at 48 or 72 hours after cell seeding. The data from at least three independent experiments is presented as percent of the amount of viable cells/initial cell number, where initial cell number was considered as 100. (B) Comparison of the effects of the EPE-peptide and Raf inhibitor PLX4032 on cell viability. NHEM-Ad, LOXIMVI, A2352, Hela MDA-MB-231, and DU-145 cells were treated with EPE peptide, scrambled peptide, (10 μM), PLX4032 (1 μM), DMSO control, or no treatment at 1% FCS. The number of cells was detected as above. The graphs present the kinetic of cell growth at the indicated times. All experiments were repeated 3 times in triplicates.\n(§4) All cells, except of MCF-10A, were seeded into 12-well cell plates in 1% FBS medium. MCF-10A cells were seeded in their complete medium diluted 5 fold. DMSO, Scr peptide, EPE peptide, or U0126 (final concentration of 10 μM each) were added to the appropriated wells four hours later. Every day medium was changed to fresh one containing the same agents. The number of viable cells was measured by Methylene Blue assay at 72 h after cell seeding. Shortly, cells were fixed with 4% Formaldehyde for 2 h at 23° C., washed once with 0.1M Borate Buffer pH 8.5 and stained with of 1% Methylene Blue in 0.1M Borate Buffer for 10 min. Color was extracted by adding 0.1 M HCl for 3 h at 23° C., and examined at 595 nm. For time course experiments, viable cells were measured at 0, 24, 48, 72 and 96 h after cell seeding. For dose response experiments we treaded the cells with 0.1, 1, 3, 10, or 30 μM of peptides for 72 h, as described above."}, "[2]": {"system": "non-transformed melanocytes (NHEM-Ad)", "experiment": "Cell viability, EPE peptide compared with PLX4032", "format": "cell-based", "details": "EPE 10 μM, PLX4032 1 μM, 1% FCS", "procedure": "as §3, §4"}, "HCT-116 xenograft": {"system": "HCT-116 xenograft", "experiment": "Tumor xenograft growth", "format": "in vivo, CD-1 nude mice", "details": "i.v. tail vein, 3 times a week", "procedure": "(§5) FIGS. 6A-6B illustrate that the EPE peptide prevents the growth of human tumor xenografts. CD-1 nude mice were inoculated with MDA-MB-231, LOXIMVI and HCT-116 cells, and SKID mice were inoculated with A2352 cells. Upon tumors establishment, the mice were treated intravenously with the DMSO as well as EPE or Scr peptides in the indicated doses, 3 times a week. The results are averages of 5 mice in each experimental group. The X, Y, Z dimensions of the tumors were measured with a caliper, and the volume was calculated accordingly. The significance of all experiments was at least P<0.001. (B) The EPE peptide prevents tumor recurrence on melanoma xenograft. SCID mice were inoculated with A2352 cells. Upon establishment of tumors mice were treated intravenously with 15 mg/kg EPE peptide (n=7) or intraperitonealy with 15 mg/kg PLX4032 (n=5), at the indicated dose 3 times a week. Tumor size was recorded at the same time using a caliper. Following 3 weeks of treatment, mice were kept for further evaluation monitoring for any tumor recurrence of the effective treated melanoma xenografts. Experiment was concluded 110 days post inoculation (11 weeks after the last treatment) and the overall state of the animals was evaluated. sac=sacrificed, recur=recurrence, met=metastasis.\n(§6) Tumor dimensions were measured with a digital sliding caliper."}, "LOXIMVI xenograft": {"system": "LOXIMVI xenograft", "experiment": "Tumor xenograft growth", "format": "in vivo, CD-1 nude mice", "details": "i.v. tail vein, 3 times a week", "procedure": "as §5, §6"}, "MDA-MB-231 xenograft": {"system": "MDA-MB-231 xenograft", "experiment": "Tumor xenograft growth", "format": "in vivo, CD-1 nude mice", "details": "i.v. tail vein, 3 times a week", "procedure": "as §5, §6"}}, "data": [{"sequence": "GQLNHILGILGEPEQED (Synthetic peptide (EPE)) [EPE peptide, NTS-derived peptide with phosphomimetic EPE motif]", "values": [{"measurement": "activation of AKT in resistant melanoma cells", "setting": "AKT; data not shown", "value": "No significant effects"}, {"measurement": "basal or stimulated phosphorylation of AKT", "setting": "AKT; shortly after stimulation or longer time periods after treatment", "value": "no effect on the basal or stimulated phosphorylation of AKT"}, {"measurement": "inhibition of phosphorylation of Elk1", "setting": "Elk1", "value": "20-45%"}, {"measurement": "effect on viability relative to PLX4032", "setting": "[1]", "value": "at least as good, or even better, than that of PLX4032"}, {"measurement": "viability", "setting": "[2]", "value": "does not have any significant effect"}, {"measurement": "growth of tumor xenograft", "setting": "HCT-116 xenograft", "value": "to some extent"}, {"measurement": "growth of tumor xenograft", "setting": "LOXIMVI xenograft", "value": "dose dependent inhibition of the growth"}, {"measurement": "growth of tumor xenograft", "setting": "MDA-MB-231 xenograft", "value": "dose dependent inhibition of the growth"}]}]}
